# Test results from PubChem BioAssay AID2060326 (Molecular Pharmacology Branch, DTP, NCI, 2025).
# System: MDA-MB-468 multi-cell spheroids, viability
# Assay: Anticancer human tumor MDA-MB-468 cell line growth inhibition [IpAb];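 also: spheroids exposed to agents for seven days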;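 as to viability, T/C: 100% = DMSO vehicle control viability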
# Conditions: for IC50: curve of first compound; for viability, T/C: stronger effect = lower value
# From the text: Combinatorial screen of targeted agents with ipatasertib and abemaciclib in multi-cell type tumor spheroids
# A high-throughput screen of multi-cell type tumor spheroids was designed to identify active combinations of targeted small molecules and ipatasertib or abemaciclib. Complex spheroids include a stromal component modeled by human endothelial cells (HUVEC) and fibroblasts modeled by human mesenchymal stem cells (MSCs). The concentration ranges selected for each drug and investigational agent were based upon clinically achievable concentrations if the clinical Cmax of the agent was known.
# Compounds. The drugs and investigational agents: ipatasertib (NSC767898), abemaciclib(NSC768073), selumetinib (NSC741078), trametinib (758246), adavosertib (NSC754352), everolimus (NSC733504), sapanisertib (NSC764658), vemurafenib (NSC761431), venetoclax (NSC766270), copanlisib (NSC809693), apelisib (NSC765974), palbociblib (NSC758247), vemurafenib (NSC761431), dabrafenib (NSC764134), ravoxertinib (NSC781343), BMS-387032 (NSC767048), sotorasib (NSC818433), talazoparib (NSC767125) and afursertib (NSC778305), were obtained from the National Cancer Institute (NCI) Developmental Therapeutics Program Chemical Repository. The FDA-approved anticancer drug set is available from the NCI Developmental Therapeutics Program. […] The stock solutions were prepared in dimethyl sulfoxide (DMSO, Sigma-Aldrich, St. Louis, MO, cat. D2650) at 800-fold the tested concentration and stored at -70 degrees C prior to their use. All drugs and investigational agents were tested over a range starting from a high concentration at or near the clinical Cmax and decreasing in half-log increments. If the clinical Cmax for an agent had not been determined, the highest concentration tested was 10 microM.
# NCI60 Cell Culture. NCI60 cell lines were obtained from the NCI Developmental Therapeutics Program Tumor Repository. For each lot of cells, the Repository performed Applied Biosystems AmpFLSTR Identifiler testing with PCR amplification to confirm consistency with the published Identifier STR profile for each cell line. Cells were kept in continuous culture for no more than 20 passages. The optimal seeding densities for each of the cell lines at each time point assessed were determined prior to performing the concentration response studies. Briefly, the NCI60 human tumor lines were grown as monolayers in RPMI 1640 medium supplemented with 10% FBS and 2 mmol/L L-glutamine.
# An additional 9 lines were from the NCI60 cell line panel including MDA-MB-231 breast carcinoma, MDA-MB-468 breast carcinoma, MCF7 breast carcinoma, Hs578T breast carcinoma, MALME-3M melanoma, SK-MEL-2 melanoma, SK-OV-3 ovarian carcinoma, DU-145 prostate carcinoma, PC-3 prostate carcinoma, all cell lines along with major genetic alterations are listed on Table 2. Pooled donor human umbilical vein endothelial cells (HUVEC, Lonza, cat. CC-2519) and human mesenchymal stem cells (hMSC, Lonza, cat. PT-2501) were purchased from Lonza (Walkersville, MD).
# PDMR cell lines were grown in complete medium (DC medium): Dulbecco's modified Eagle's medium (DMEM)/F12 supplemented with 5% fetal bovine serum (FBS), 2 mM L-glutamine, 100 U/mL penicillin and 100 µg/ml streptomycin, 0.4 µg/ml hydrocortisone, 10 ng/ml epidermal growth factor (EGF) recombinant human protein, 24 µg/mL adenine, and 0.1 mg/mL primocin. During culture from frozen stock vials, PDMR cells were cultured in the same medium containing 10 µM Y-27632 (see Table 3). The PDCs were cultured in complete DMEM/F12 media without 10 microM Y-27632 dihydrochloride for at least two passages prior to the screen. The pooled donor HUVEC and hMSC were cultured in endothelial cell growth medium 2 (PromoCell, Heidelberg, Germany, cat. C-22011) and mesenchymal stem cell growth medium 2 (PromoCell, cat. C-28009), respectively. For all experiments, HUVEC and hMSC were used at passages </=5.
# […]
# [1] = second compound 0.1 µM, first compound 0.0316 µM
# [2] = second compound 0.1 µM, first compound 0.1 µM
# [3] = second compound 0.1 µM, first compound 0.316 µM
# [4] = second compound 0.1 µM, first compound 1 µM
# [5] = second compound 0.1 µM, first compound 3.16 µM
# [6] = second compound 0.1 µM, first compound 10 µM
# [7] = second compound 0.316 µM, first compound 0.0316 µM
# [8] = second compound 0.316 µM, first compound 0.1 µM
# [9] = second compound 0.316 µM, first compound 0.316 µM
# [10] = second compound 0.316 µM, first compound 1 µM
# [11] = second compound 0.316 µM, first compound 3.16 µM
# [12] = second compound 0.316 µM, first compound 10 µM
# [13] = second compound 1 µM, first compound 0.0316 µM
# [14] = second compound 1 µM, first compound 0.1 µM
# [15] = second compound 1 µM, first compound 0.316 µM
# [16] = second compound 1 µM, first compound 1 µM
# [17] = second compound 1 µM, first compound 3.16 µM
# [18] = second compound 1 µM, first compound 10 µM
# [19] = second compound 3.16 µM, first compound 0.0316 µM
# [20] = second compound 3.16 µM, first compound 0.1 µM
# [21] = second compound 3.16 µM, first compound 0.316 µM
# [22] = second compound 3.16 µM, first compound 1 µM
# [23] = second compound 3.16 µM, first compound 3.16 µM
# [24] = second compound 3.16 µM, first compound 10 µM
# [25] = second compound 10 µM, first compound 0.0316 µM
# [26] = second compound 10 µM, first compound 0.1 µM
# [27] = second compound 10 µM, first compound 0.316 µM
# [28] = second compound 10 µM, first compound 1 µM
# [29] = second compound 10 µM, first compound 3.16 µM
# [30] = second compound 10 µM, first compound 10 µM
compound,measurement,setting,value
C=CCn1c(=O)c2cnc(Nc3ccc(N4CCN(C)CC4)cc3)nc2n1-c1cccc(C(C)(C)O)n1 + CC(C)NCC(C(=O)N1CCN(c2ncnc3c2C(C)CC3O)CC1)c1ccc(Cl)cc1,IC50,second compound 0.1 µM,0.383 µM
same,IC50,second compound 0.316 µM,0.212 µM
same,IC50,second compound 1 µM,0.0602 µM
same,IC50,second compound 3.16 µM,< 0.0316 µM
same,IC50,second compound 10 µM,< 0.0316 µM
same,"viability, T/C",[1],101%
same,"viability, T/C",[2],89.3%
same,"viability, T/C",[3],59.5%
same,"viability, T/C",[4],5.21%
same,"viability, T/C",[5],3.03%
same,"viability, T/C",[6],2.74%
same,"viability, T/C",[7],78.6%
same,"viability, T/C",[8],63.7%
same,"viability, T/C",[9],42.6%
same,"viability, T/C",[10],2.96%
same,"viability, T/C",[11],3.13%
same,"viability, T/C",[12],2.21%
same,"viability, T/C",[13],59.4%
same,"viability, T/C",[14],40.8%
same,"viability, T/C",[15],25.7%
same,"viability, T/C",[16],2.27%
same,"viability, T/C",[17],2.93%
same,"viability, T/C",[18],1.68%
same,"viability, T/C",[19],32.1%
same,"viability, T/C",[20],27.2%
same,"viability, T/C",[21],15.7%
same,"viability, T/C",[22],1.82%
same,"viability, T/C",[23],3.18%
same,"viability, T/C",[24],1.47%
same,"viability, T/C",[25],17.8%
same,"viability, T/C",[26],14%
same,"viability, T/C",[27],9.24%
same,"viability, T/C",[28],1.81%
same,"viability, T/C",[29],2.55%
same,"viability, T/C",[30],1.3%
CC(C)n1nc(-c2ccc3oc(N)nc3c2)c2c(N)ncnc21 + CC(C)NCC(C(=O)N1CCN(c2ncnc3c2C(C)CC3O)CC1)c1ccc(Cl)cc1,IC50,second compound 0.1 µM,0.00515 µM
same,IC50,second compound 0.316 µM,0.00236 µM
same,IC50,second compound 1 µM,< 0.000316 µM
same,IC50,second compound 3.16 µM,< 0.000316 µM
same,IC50,second compound 10 µM,< 0.000316 µM
same,"viability, T/C","second compound 0.1 µM, first compound 0.000316 µM",76.6%
same,"viability, T/C","second compound 0.1 µM, first compound 0.001 µM",72.1%
same,"viability, T/C","second compound 0.1 µM, first compound 0.00316 µM",58.3%
same,"viability, T/C","second compound 0.1 µM, first compound 0.01 µM",38.7%
same,"viability, T/C",[1],15.8%
same,"viability, T/C",[2],7.82%
same,"viability, T/C","second compound 0.316 µM, first compound 0.000316 µM",59%
same,"viability, T/C","second compound 0.316 µM, first compound 0.001 µM",54.5%
same,"viability, T/C","second compound 0.316 µM, first compound 0.00316 µM",48.6%
same,"viability, T/C","second compound 0.316 µM, first compound 0.01 µM",23.4%
same,"viability, T/C",[7],9.26%
same,"viability, T/C",[8],5.3%
same,"viability, T/C","second compound 1 µM, first compound 0.000316 µM",47.6%
same,"viability, T/C","second compound 1 µM, first compound 0.001 µM",41%
same,"viability, T/C","second compound 1 µM, first compound 0.00316 µM",31.1%
same,"viability, T/C","second compound 1 µM, first compound 0.01 µM",11.3%
same,"viability, T/C",[13],5.17%
same,"viability, T/C",[14],3.13%
same,"viability, T/C","second compound 3.16 µM, first compound 0.000316 µM",31.4%
same,"viability, T/C","second compound 3.16 µM, first compound 0.001 µM",25.4%
same,"viability, T/C","second compound 3.16 µM, first compound 0.00316 µM",16.8%
same,"viability, T/C","second compound 3.16 µM, first compound 0.01 µM",5.94%
same,"viability, T/C",[19],2.41%
same,"viability, T/C",[20],1.21%
same,"viability, T/C","second compound 10 µM, first compound 0.000316 µM",15.7%
same,"viability, T/C","second compound 10 µM, first compound 0.001 µM",14.3%
same,"viability, T/C","second compound 10 µM, first compound 0.00316 µM",7.69%
same,"viability, T/C","second compound 10 µM, first compound 0.01 µM",3.03%
same,"viability, T/C",[25],0.6%
same,"viability, T/C",[26],0.38%
CC1(C)CCC(CN2CCN(c3ccc(C(=O)NS(=O)(=O)c4ccc(NCC5CCOCC5)c([N+](=O)[O-])c4)c(Oc4cnc5[nH]ccc5c4)c3)CC2)=C(c2ccc(Cl)cc2)C1 + CC(C)NCC(C(=O)N1CCN(c2ncnc3c2C(C)CC3O)CC1)c1ccc(Cl)cc1,IC50,second compound 0.1 µM,4.76 µM
same,IC50,second compound 0.316 µM,3.03 µM
same,IC50,second compound 1 µM,1.38 µM
same,IC50,second compound 3.16 µM,< 0.0316 µM
same,IC50,second compound 10 µM,< 0.0316 µM
same,"viability, T/C",[1],109%
same,"viability, T/C",[2],89.5%
same,"viability, T/C",[3],98.3%
same,"viability, T/C",[4],94.6%
same,"viability, T/C",[5],71.3%
same,"viability, T/C",[6],11.3%
same,"viability, T/C",[7],69.8%
same,"viability, T/C",[8],72.2%
same,"viability, T/C",[9],82.4%
same,"viability, T/C",[10],69.5%
same,"viability, T/C",[11],49.3%
same,"viability, T/C",[12],7.93%
same,"viability, T/C",[13],56.9%
same,"viability, T/C",[14],63.8%
same,"viability, T/C",[15],55%
same,"viability, T/C",[16],56.6%
same,"viability, T/C",[17],34.1%
same,"viability, T/C",[18],5.02%
same,"viability, T/C",[19],34.4%
same,"viability, T/C",[20],37.7%
same,"viability, T/C",[21],38.5%
same,"viability, T/C",[22],36.4%
same,"viability, T/C",[23],26.1%
same,"viability, T/C",[24],2.19%
same,"viability, T/C",[25],17.4%
same,"viability, T/C",[26],18.9%
same,"viability, T/C",[27],17.9%
same,"viability, T/C",[28],19.5%
same,"viability, T/C",[29],9.97%
same,"viability, T/C",[30],0.99%
CCCS(=O)(=O)Nc1ccc(F)c(C(=O)c2c[nH]c3ncc(-c4ccc(Cl)cc4)cc23)c1F + CC(C)NCC(C(=O)N1CCN(c2ncnc3c2C(C)CC3O)CC1)c1ccc(Cl)cc1,IC50,second compound 0.1 µM,> 10 µM
same,IC50,second compound 0.316 µM,9.96 µM
same,IC50,second compound 1 µM,0.498 µM
same,IC50,second compound 3.16 µM,< 0.0316 µM
same,IC50,second compound 10 µM,< 0.0316 µM
same,"viability, T/C",[1],86.3%
same,"viability, T/C",[2],87.3%
same,"viability, T/C",[3],98.5%
same,"viability, T/C",[4],98%
same,"viability, T/C",[5],71.7%
same,"viability, T/C",[6],50.1%
same,"viability, T/C",[7],62.2%
same,"viability, T/C",[8],60.7%
same,"viability, T/C",[9],62.5%
same,"viability, T/C",[10],74.8%
same,"viability, T/C",[11],53.3%
same,"viability, T/C",[12],39.3%
same,"viability, T/C",[13],58.4%
same,"viability, T/C",[14],53.6%
same,"viability, T/C",[15],52.6%
same,"viability, T/C",[16],46%
same,"viability, T/C",[17],40.1%
same,"viability, T/C",[18],27.8%
same,"viability, T/C",[19],35.7%
same,"viability, T/C",[20],34.1%
same,"viability, T/C",[21],29.4%
same,"viability, T/C",[22],31.3%
same,"viability, T/C",[23],30.1%
same,"viability, T/C",[24],18.6%
same,"viability, T/C",[25],17.3%
same,"viability, T/C",[26],18.3%
same,"viability, T/C",[27],18.9%
same,"viability, T/C",[28],16.9%
same,"viability, T/C",[29],13.7%
same,"viability, T/C",[30],2.03%
